What all share (type): cell-based
For test [1], the system named is P-388 (suspension culture of a lymphoid neoplasm from DBA/2 mouse). Briefly: Antitumor screening, P-388 cell growth. The settings on record: P388, 72 h, P-388 cells, three days of incubation, approximate IC50 vs control growth. The method, then:
(§1) Cells were maintained in logarithmic phase of growth in Eagle's Minimum Essential Medium, with Earle's Balanced Salts, with 2.0 mM L-glutamine, with non-essential amino acids, without sodium bicarbonate (EMEM/neaa); supplemented with 10% Fetal Calf Serum (FCS), 10^−2 M sodium bicarbonate and 0.1 g/l penicillin+G streptomycin sulfate.
(§2) A screening procedure has been carried out to determine and compare the antitumor activity of these compounds, using an adapted form of the method described by Bergeron et al. (Reference 15: Raymond J. Bergeron, Paul F. Cavanaugh, Jr., Steven J. Kline, Robert G. Hughes, Jr., Gary T. Elliot and Carl W. Porter. Antineoplastic and antiherpetic activity of spermidine catecholamide iron chelators. Biochem. Bioph. Res. Comm. 1984, 121, 848-854). The antitumor cells employed were P-388 (suspension culture of a lymphoid neoplasm from DBA/2 mouse), A-549 (monolayer culture of a human lung carcinoma), HT-29 (monolayer culture of a human colon carcinoma) and MEL-28 (monolayer culture of a human melanoma).
P-388 cells were seeded into 16 mm wells at 1×10^4 cells per well in 1 ml aliquots of MEM 5FCS containing the indicated concentration of drug. A separate set of cultures without drug was seeded as control growth to ensure that cells remained in exponential phase of growth. All determinations were carried out in duplicate. […]

Test [2] deals with A-549 (monolayer culture of a human lung carcinoma). Briefly: Antitumor screening, A-549 cell growth (Crystal Violet). The settings on record: A549, 72 h, A-549 cells, three days of incubation, approximate IC50. The procedure:
as §1, §2
(§3) A-549, HT-29 cells were seeded into 16 mm wells at 2×10^4 cells per well in 1 ml aliquots of MEM 10FCS containing the indicated concentration of drug. […] An approximately IC50 was determined by comparing the growth in wells with drug to the growth in wells control.

Test [3] deals with HT-29 (monolayer culture of a human colon carcinoma). The test is described as follows: Antitumor screening, HT-29 cell growth (Crystal Violet). Conditions: 72 h, HT-29 cells, three days of incubation, approximate IC50. The procedure:
as §1, §2, §3

The test system of test [4] is MEL-28 (monolayer culture of a human melanoma). The test is described as follows: Antitumor screening, MEL-28 cell growth. The settings on record: SK-MEL-28, MEL-28 cells, approximate IC50. The method, then: as §1, §2, §3

This is an account of results in patent US6350743B1, “Cytotoxic pyridoacridine alkaloids” (Instituto Biomar, S.A., priority 1997, dated 2002).

pIC50: −log10 of the molar value.

Take `CN(C)CCc1c2c(c3nccc4c3c1Nc1ccccc1-4)NC(=O)CS2` [Shermilamine D]: the pIC50 in test [1] is 5.88; in test [2], 6.57; in test [3], 5.58; in test [4] it was 6.28.

For orientation: pIC50 means the IC50 on a negative log10 scale, so that one unit is a factor of ten.
